Assay [1] relates to E. coli (APH(3′)IIIa). Description: MIC 50, broth micro-dilution, E. coli expressing APH(3′)IIIa. The assay is classed as cell-based, Escherichia coli. As to conditions: Escherichia coli, ATCC25922, ATCC25922 harboring plasmid encoding APH(3′)IIIa. The procedure: (§1) Plasmid transformation. Approximately 500 ng of the pET-9b(+) (Cat. No. 69432-3, Merck), pAT21-1 (provided by Prof. Dr. Patrice Courvalin, M.D., Pasteur Institute, France; prepared according to Trieu-Cuot et. al, Mol. Gen. Genet. 198(2), 348 (1985)), pBluescript::AAC(6′)-Ie/APH(2″)-Ia (provided by Prof. Dr. Sergei Vakulenko, M.D., University of Notre Dame, Ind., USA; prepared according to S. B. Vakulenko et. al., J. Biol. Chem. 287 (52), 43262 (2012)), pBlue_lpp_aacC3_rrnC and pSET152 (Cat. No. PVT3395, Life Science Market; prepared according to Bierman et al., Gene 116 (1), 43 (1992)) plasmids, encoding APH(3′)-Ia (SEQ ID NO:2), APH(3′)-IIIa (SEQ ID NO:3), AAC(6′)Ie-APH(2″)-Ia (SEQ ID NO:4), AAC(3)-III (SEQ ID NO:1), and AAC(3)-IV (SEQ ID NO:5) respectively, were individually incubated in a vial of competent cells for 15 min on ice. The cells were subsequently heated to 42° C. for 90 s, and cooled on ice for 1 min. After addition of 900 μL LB, the cells were incubated for 1 h at 37° C. and 200 rpm. Cells were plated on LB-agar supplemented with 50 μg/mL KanaA and incubated for 18 h at 37° C. The next day, a single colony was inoculated in 5 mL LB supplemented with 50 μg/mL and grown for 18 h at 37° C. and 200 rpm. A 200 μL sample of each culture was diluted with 200 μL of 40% v/v glycerol in water, and stored at −80° C. The plasmid was purified from the remaining culture using the Plasmid Miniprep kit. Plasmid DNA was investigated by Eurofins Genomics (Germany) to confirm the identity of the aminoglycoside resistance genes.
(§2) 3.1 Against E. coli Strains
(§3) Tested reference compounds. Amikacin sulfate (Cat. No. 01693, Chem-Impex), Gentamicin sulfate (Cat. No. G4918, Sigma Aldrich).
(§4) Microbial strains. E. coli ATCC 25922, E. coli ATCC 25922/pET-9b(+), E. coli ATCC 25922/pAT21-1, E. coli ATCC 25922/pBluescript::AAC(6′)-Ie/APH(2″)-Ia, E. coli ATCC 25922/pBlue_lpp_aacC3_rrnC, E. coli ATCC 25922/pSET152.
(§5) Culture media and equipment. BBL™ Mueller Hinton Broth 2 (Lot. BCBW1143, Cat. No. 70192, Sigma); Kanamycin A (Cat. No. A1493, AppliChem); 96-well deep well plate, 1 mL (Cat. No. 0030506.200, Eppendorf); Plate lids (Cat. No. 0030131.525, Eppendorf); 96-well plate, F-bottom (Cat. No. 781602, Brand; Incubator, Infors Multitron Pro); Laminar flow (Heraeus KS12); UV/VIS meter (Eppendorf BioPhotometer Plus); Platereader (Tecan Sunrise).
(§6) Compound preparation. Compounds were prepared in MH2 media at a concentration of 5 mM and stored at 4° C. For testing, solutions of 128 μM were prepared in MH2. Out of these working solutions, 400 μL was transferred to wells in the first column of 96-well deep well plates. Each compound was transferred in triplicate. Plates were previously filled with 200 μL of MH2 media in all wells except for the wells in the first column. After compound and antibiotic addition, the compounds were serial two-fold diluted by transferring 200 μL from the first to the second column, then from the second to the third column and so on. Finally, 200 μL was removed from the last column.
(§7) Inoculum preparation. Microorganisms used were all revived from 20% glycerol (40% v/v glycerol in water was diluted with MH2) storage at −80° C. by inoculating them in 5 mL MH2. inoculums of E. coli containing a plasmid were selected for by adding 50 μg/mL KanaA. The Inoculums were grown to an optical density (measured by UV/Vis spectroscopy) of 0.6-0.8 at 600 nm. Out of these suspensions, actual inoculums were prepared by diluting them to an optical density (OD) of 0.1 in MH2 media. From these inoculums, 200 μL was transferred to each well, resulting in a final compound concentration range of 64 μM-31.3 nM. All plates were incubated at 900 rpm and 70% rH for 18 h at 37° C.
(§8) MIC determination. After 18 h of growth, 200 μL was transferred to a 96-well F-bottom plate. The optical density was determined by a plate reader at 600 nm, with 10 s shaking before reading. Triplicate measurements were averaged, and a growth curve was plotted in Microsoft Excel. […]
In general terms: In broth dilution the organism is exposed to a series of concentrations in liquid medium.

Assay [2] concerns E. coli (AAC(3)IV). Description: MIC 50, broth micro-dilution, E. coli expressing AAC(3)IV. The assay is classed as cell-based, Escherichia coli. As to conditions: Escherichia coli, ATCC25922, ATCC25922 harboring plasmid encoding AAC(3)IV. The protocol:
as §1, §2, §3, §4, §5, §6, §7, §8

For assay [3], the system named is E. coli (AAC(6′)Ie-APH(2″)Ia). Description: MIC 50, broth micro-dilution, E. coli expressing AAC(6′)Ie-APH(2″)Ia. Format: cell-based, Escherichia coli. As to conditions: Escherichia coli, ATCC25922, ATCC25922 harboring plasmid encoding AAC(6′)Ie-APH(2″)Ia. The protocol: as §1, §2, §3, §4, §5, §6, §7, §8
In assay [4] the test system is E. coli ATCC25922 strain. Description: MIC 50, broth micro-dilution, wild-type Escherichia coli. Format: cell-based. As to conditions: Escherichia coli, ATCC25922, 18 h, MH2, 18 h.
Source text: as §2, §3, §4, §5, §6, §7
MIC determination. After 18 h of growth, 200 μL was transferred to a 96-well F-bottom plate. The optical density was determined by a plate reader at 600 nm, with 10 s shaking before reading. Triplicate measurements were averaged, and a growth curve was plotted in Microsoft Excel. The first column in which the growth reached half the value of maximum growth was determined as the MIC50 value for that particular compound.
MIC50. The MIC50 of a compound was assigned at which the bacterial growth reached half the value of maximum growth.

Assay [5] concerns E. coli (APH(3′)Ia). Description: MIC 50, broth micro-dilution, E. coli expressing APH(3′)Ia. Format: cell-based, Escherichia coli. Particulars: Escherichia coli, ATCC25922, ATCC25922 harboring plasmid encoding APH(3′)Ia. The protocol: as §1, §2, §3, §4, §5, §6, §7, §8
The test system of assay [6] is E. coli (AAC(3)III). Nature of the assay: MIC 50, broth micro-dilution, E. coli expressing AAC(3)III. The assay is classed as cell-based, Escherichia coli. Particulars: Escherichia coli, ATCC25922, ATCC25922 harboring plasmid encoding AAC(3)III.
Source text: Cloning resistant enzymes. An Escherichia coli codon optimized gene encoding AAC(3)-III (GenBank acc.nr. X55652.1; SEQ ID NO:1), including a promoter and terminator sequence, was synthesized by Integrated DNA Technologies, Belgium. The synthesized gene and pBluescript II KS(+) plasmid were digested using the restriction enzymes SacI and SalI, and purified from a 1% TBE-agarose gel using the illustra Gel Band purification kit. The purified linear plasmid and T4 DNA ligase were used to ligate aac(3)-III under control of the constitutive lipoprotein Ipp promoter and ribosomal RNA rrnC terminator, resulting in pBlue_Ipp_aacC3_rrnC.
as §1, §2, §3, §4, §5, §6
Inoculum preparation. Microorganisms used were all revived from 20% glycerol (40% v/v glycerol in water was diluted with MH2) storage at −80° C. by inoculating them in 5 mL MH2. inoculums of E. coli containing a plasmid were selected for by adding 50 μg/mL KanaA.

SMILES strings stand for the structures. ≈ marks a conversion by molar mass, not a printed value.

One may read the MIC50 as the lowest concentration that inhibits either 50% of growth or 50% of the strains tested, depending on the study. A lower MIC50 goes with greater potency. As for `N=C(N)NC1[C@@H](O)C(OC2[C@@H](F)[C@H](O[C@H]3OC(CN)[C@@H](O)CC3N)C(N)C[C@H]2NC(=O)[C@@H](F)CCN)O[C@H](CO)[C@H]1O` (stereo partly drawn) [ABX5034, Tobra-(AFB)-F-Gua], the MIC50 in assay [1] is 0.5 to 1 µM (≈ 0.307 to 0.615 µg/mL); in assay [2], 2 to 4 µM (≈ 1.23 to 2.46 µg/mL); in assay [3], 1 µM (≈ 0.615 µg/mL); in assay [4] it was 1 µM (≈ 0.615 µg/mL); in assay [5] it was 1 µM (≈ 0.615 µg/mL); in assay [6] it was 0.5 to 1 µM (≈ 0.307 to 0.615 µg/mL).

As to `N=C(NC[C@H]1CCCNC1)NC1[C@@H](O)C(OC2[C@@H](F)[C@H](O[C@H]3OC(CN)[C@@H](O)CC3N)C(N)C[C@H]2NC(=O)[C@@H](O)CCN)O[C@H](CO)[C@H]1O` (stereo partly drawn) [ABX5044, Tobra-AHB-F-Gua (S) piperidin-3-yl methyl], the MIC50 in assay [1] is 0.5 µM (≈ 0.355 µg/mL); in assay [2], 2 µM (≈ 1.42 µg/mL); in assay [3] it was 0.5 µM (≈ 0.355 µg/mL); in assay [4], 0.5 µM (≈ 0.355 µg/mL); in assay [5], 0.5 to 1 µM (≈ 0.355 to 0.71 µg/mL); in assay [6], 0.5 µM (≈ 0.355 µg/mL).

Source of the values: US20220127297A1, “Novel Antibacterial 3"-Derivatives Of 4,6-Disubstituted 2,5-Dideoxystreptamine Aminoglycoside Antibiotics” (AGILeBiotics B.V., priority 2018, published 2022).
